This passage reports IC50 results from patent US10954216B2, “BMP-signal-inhibiting compound” (RIKEN, priority 2016, dated 2021).

Counter-ions that a name gives are not always drawn. Like-named read-outs stand apart in the source and are kept apart here.

The experiment deals with BMP signal in MDA-231-D-BREFluc/Rluc cells. Description: BMP signal inhibitory effect (AlphaScreen SureFire SMAD1 p-Ser463/465, BMP-6 stimulation). The class given is cell-based. As to the method:
BMP Signal Inhibitory Effect
A BMP signal inhibitory activity of a compound of the present invention was evaluated according to the following method.
MDA-231-D-BREFluc/Rluc cells prepared according to the method described in Y. Katsuno et al., Oncogene, 27, 6322 (2008) were incubated at 37° C. for 2 hours together with test compounds, and BMP-6 (commercially available from R&D System, 507-BM-020) was then added thereto, and the mixture was additionally incubated at 37° C. for 30 minutes. A Lysis Buffer and Acceptor mix of AlphaScreen SureFire SMAD1 (p-Ser463/465) assay kit (commercially available from Perkin Elmer, TGRSM1S10K) were sequentially added thereto, the mixture was incubated at room temperature for 2 hours, and AlphaScreen Protein A kit (commercially available from Perkin Elmer, 6760617) was then added thereto, and standard AlphaScreen settings of Alpha Technology—compatible plate reader (commercially available from Perkin Elmer, EnSpire) was used for measurement.
(In general: Alpha assays give light when donor and acceptor beads are brought close together.)

The mark [1] stands for this setting: BMP-6 stimulated MDA-231-D-BREFluc/Rluc cells, phospho-SMAD1 AlphaScreen, read-out: IC50.

What is called IC50 is the concentration that gives 50% inhibition.

As for `CCn1cc(-c2ccnc(Nc3ccc(C(=O)N4CCCCC4)cc3)n2)c(-c2cccnc2)n1` [Example 2, (4-((4-(1-ethyl-3-(pyridin-3-yl)-1H-pyrazol-4-yl)pyrimidin-2-yl)amino)phenyl)(piperidin-1-yl)methanone], the IC50 under setting [1] came to 40.7 nM.
As to `CCn1cc(-c2ccnc(Nc3ccc(C4CCN(CCOC)CC4)cc3)n2)c(-c2cccnc2)n1` [Example 58, 4-(1-ethyl-3-(pyridin-3-yl)-1H-pyrazol-4-yl)-N-(4-(1-(2-methoxyethyl)piperidin-4-yl)phenyl)pyrimidin-2-amine], under setting [1], the 50% inhibitory concentration (IC50) stood at 4.4 nM.
`COCCN1CCN(c2ccc(Nc3nccc(-c4cn(CC5(C)COC5)nc4-c4cccnc4)n3)cc2)CC1` [Example 77]: the IC50 under setting [1] was 51.3 nM.
Regarding `CCn1cc(-c2ccnc(Nc3ccc(OC4CN(CC(C)(C)O)C4)cc3)n2)c(-c2cccnc2)n1` [Example 108, 1-(3-(4-((4-(1-Ethyl-3-(pyridin-3-yl)-1H-pyrazol-4-yl)pyrimidin-2-yl)amino)phenoxy)azetidin-1-yl)-2-methylpropan-2-ol], the 50% inhibitory concentration (IC50) under setting [1] turned out to be 13.3 nM.
For the compound `CCn1cc(-c2ccnc(Nc3ccc4c(c3)CCN(CC(=O)O)C4)n2)c(-c2cccnc2)n1` [Example 172, 2-(6-((4-(1-ethyl-3-(pyridin-3-yl)-1H-pyrazol-4-yl)pyrimidin-2-yl)amino)-3,4-dihydroisoquinolin-2(1H)-yl)acetic acid], under setting [1], the half-maximal inhibitory concentration (IC50) was 38.3 nM.
For the compound `CCn1cc(-c2ccnc(Nc3cnn(C4CCN(CCOC)CC4)c3)n2)c(-c2cccnc2)n1` [Example 55, 4-(1-ethyl-3-(pyridin-3-yl)-1H-pyrazol-4-yl)-N-(1-(1-(2-methoxyethyl)piperidin-4-yl)-1H-pyrazol-4-yl)pyrimidin-2-amine oxalate], under setting [1], the IC50 turned out to be 21.6 nM.
With `COCCn1cc(-c2ccnc(Nc3ccc(N4CCN(CC5CC5)CC4)cc3)n2)c(-c2cccnc2)n1` [Example 36, N-(4-(4-(Cyclopropylmethyl)piperazin-1-yl)phenyl)-4-(1-(2-methoxyethyl)-3-(pyridin-3-yl)-1H-pyrazole-4-yl)pyrimidin-2-amine], under setting [1], the IC50 amounted to 15.9 nM.
`CCn1cc(-c2ccnc(Nc3ccc(N4CCOCC4)cc3)n2)c(-c2cccnc2)n1` [Example 22, 4-(1-ethyl-3-(pyridin-3-yl)-1H-pyrazol-4-yl)-N-(4-morpholinophenyl)pyrimidin-2-amine]: under setting [1], the IC50 stood at 19 nM.
For `CCn1cc(-c2ccnc(Nc3ccc(-n4ccnc4)cc3)n2)c(-c2cccnc2)n1` [Example 44, N-(4-(1H-Imidazol-1-yl)phenyl)-4-(1-ethyl-3-(pyridin-3-yl)-1H-pyrazol-4-yl)pyrimidin-2-amine], the 50% inhibitory concentration (IC50) under setting [1] is 14.5 nM.
On to `CCn1cc(-c2ccnc(Nc3ccc(N4CCN(CCOC)CC4)c(C#N)c3)n2)c(-c2cccnc2)n1` [Example 83, 5-((4-(1-Ethyl-3-(pyridin-3-yl)-1H-pyrazol-4-yl)pyrimidin-2-yl)amino)-2-(4-(2-methoxyethyl)piperazin-1-yl)benzonitrile], for which the IC50 under setting [1] turned out to be 14.3 nM.
For `CCn1cc(-c2ccnc(Nc3ccc(N4CCN(CC(=O)O)CC4)cc3)n2)c(-c2cccnc2)n1` [Example 173, 2-(4-(4-((4-(1-Ethyl-3-(pyridin-3-yl)-1H-pyrazol-4-yl)pyrimidin-2-yl)amino)phenyl)piperazin-1-yl)acetic acid], under setting [1], the IC50 was 47.6 nM.
`CCn1cc(-c2ccnc(Nc3cccc(CN(C)C)c3)n2)c(-c2cccnc2)n1` [Example 40, N-(3-((dimethylamino)methyl)phenyl)-4-(1-ethyl-3-(pyridin-3-yl)-1H-pyrazol-4-yl)pyrimidin-2-amine]: the 50% inhibitory concentration (IC50) under setting [1] is 5 nM.
As to `CCn1cc(-c2ccnc(Nc3ccc(N4CCN(C5CC5)CC4)cc3)n2)c(-c2cccnc2)n1` [Example 32, N-(4-(4-cyclopropylpiperazin-1-yl)phenyl)-4-(1-ethyl-3-(pyridin-3-yl)-1H-pyrazol-4-yl)pyrimidin-2-amine], the concentration for half-maximal inhibition (IC50) under setting [1] was 21.3 nM.
As to `CCn1cc(-c2ccnc(Nc3ccc(N4CCC(N5CCN(C)CC5)CC4)cc3)n2)c(-c2cccnc2)n1` [Example 20], the IC50 under setting [1] was determined as 11.8 nM.
Regarding `CCn1cc(-c2ccnc(Nc3ccc(N4CCN(CC5CCOC5)CC4)cc3)n2)c(-c2cccnc2)n1` (stereo not shown) [Example 97, 4-(1-Ethyl-3-(pyridin-3-yl)-1H-pyrazol-4-yl)-N-(4-(4-((tetrahydrofuran-3-yl)methyl)piperazin-1-yl)phenyl)pyrimidin-2-amine], the IC50 under setting [1] came to 15.2 nM.
On to `CCn1cc(-c2ccnc(Nc3ccc(OC4CCNCC4F)cc3)n2)c(-c2cccnc2)n1` (stereo not shown) [Example 164, 4-(1-Ethyl-3-(pyridin-3-yl)-1H-pyrazol-4-yl)-N-(4-((3-fluoropiperidin-4-yl)oxy)phenyl) pyrimidin-2-amine], for which the concentration for half-maximal inhibition (IC50) under setting [1] amounted to 11.4 nM.
For `N#Cc1ccccc1Cn1cc(-c2ccnc(Nc3ccc(N4CCNCC4)cc3)n2)c(-c2cccnc2)n1` [Example 157, 2-((4-(2-((4-(Piperazin-1-yl)phenyl)amino)pyrimidin-4-yl)-3-(pyridin-3-yl)-1H-pyrazol-1-yl)methyl)benzonitrile], the IC50 under setting [1] turned out to be 19.7 nM.
Take `CCn1cc(-c2ccnc(Nc3ccc(N4CCC5(CC4)CN(C(C)=O)C5)cc3)n2)c(-c2cccnc2)n1` [Example 21, 1-(7-(4-((4-(1-ethyl-3-(pyridin-3-yl)-1H-pyrazol-4-yl)pyrimidin-2-yl)amino)phenyl)-2,7-diazaspiro[3.5]nonan-2-yl)ethan-1-one]: the IC50 under setting [1] turned out to be 39 nM.
Consider `c1ccc(Cn2cc(-c3ccnc(Nc4ccc(N5CCNCC5)cc4)n3)c(-c3cccnc3)n2)nc1` [Example 140, N-(4-(Piperazin-1-yl)phenyl)-4-(1-(pyridin-2-ylmethyl)-3-(pyridin-3-yl)-1H-pyrazol-4-yl)pyrimidin-2-amine], for which the IC50 under setting [1] amounted to 31.9 nM.
Still for that read-out and setting: in the case of `CCn1cc(-c2ccnc(Nc3ccc(C4CCCN(C)C4)cc3)n2)c(-c2cccnc2)n1` (stereo not shown) [Example 113, 4-(1-Ethyl-3-(pyridin-3-yl)-1H-pyrazol-4-yl)-N-(4-(1-methylpiperidin-3-yl)phenyl)pyrimidin-2-amine] it was 8 nM.
For `CCn1cc(-c2ccnc(Nc3cc(F)c(N4CCNCC4)c(F)c3)n2)c(-c2cccnc2)n1` [Example 153, N-(3,5-Difluoro-4-(piperazin-1-yl)phenyl)-4-(1-ethyl-3-(pyridin-3-yl)-1H-pyrazol-4-yl)pyrimidin-2-amine], the IC50 under setting [1] is 6.5 nM.
As for `COCCN1CCN(c2ccc(Nc3nccc(-c4cn(CC(C)(C)O)nc4-c4cccnc4)n3)cc2)CC1` [Example 81, 1-(4-(2-((4-(4-(2-Methoxyethyl)piperazin-1-yl)phenyl)amino)pyrimidin-4-yl)-3-(pyridin-3-yl)-1H-pyrazol-1-yl)-2-methylpropan-2-ol], the IC50 under setting [1] was 21 nM.
Take `CCn1cc(-c2ccnc(Nc3ccc(-c4cn[nH]c4)cc3)n2)c(-c2cccnc2)n1` [Example 30, N-(4-(1H-pyrazol-4-yl)phenyl)-4-(1-ethyl-3-(pyridin-3-yl)-1H-pyrazol-4-yl)pyrimidin-2-amine]: under setting [1], the 50% inhibitory concentration (IC50) stood at 32.9 nM.
`COCC(O)CN1CCN(c2ccc(Nc3nccc(-c4cn(CC(C)(C)O)nc4-c4cccnc4)n3)cc2)CC1` (stereo not shown) [Example 111, 1-(4-(2-((4-(4-(2-Hydroxy-3-methoxypropyl)piperazin-1-yl)phenyl)amino)pyrimidin-4-yl)-3-(pyridin-3-yl)-1H-pyrazol-1-yl)-2-methylpropan-2-ol]: the IC50 under setting [1] worked out at 27.3 nM.
Take `COCCN1CCN(c2ccc(Nc3nccc(-c4cn(CC5COC5)nc4-c4cccnc4)n3)cc2)CC1` [Example 102, N-(4-(4-(2-Methoxyethyl)piperazin-1-yl)phenyl)-4-(1-(oxetan-3-ylmethyl)-3-(pyridin-3-yl)-1H-pyrazol-4-yl)pyrimidin-2-amine]: the IC50 under setting [1] came out at 50.4 nM.
For the compound `CCn1cc(-c2ccnc(Nc3ccc(N4CCN(CCOCC5CC5)CC4)cc3)n2)c(-c2cccnc2)n1` [Example 52, N-(4-(4-(2-(Cyclopropylmethoxy)ethyl)piperazin-1-yl)phenyl)-4-(1-ethyl-3-(pyridin-3-yl)-1H-pyrazol-4-yl)Pyrimidin-2-amine], under setting [1], the IC50 was 13.3 nM.
As to `CCn1cc(-c2ccnc(Nc3ccc(N4CCC[C@H](N)C4)cc3)n2)c(-c2cccnc2)n1` [Example 160, (S)-N-(4-(3-Aminopiperidin-1-yl)phenyl)-4-(1-ethyl-3-(pyridin-3-yl)-1H-pyrazol-4-yl)pyrimidin-2-amine], the IC50 under setting [1] was 15.8 nM.
As for `CCn1cc(-c2ccnc(Nc3ccc(C4CCN(C(=O)CO)CC4)cc3)n2)c(-c2cccnc2)n1` [Example 59, 1-(4-(4-((4-(1-ethyl-3-(pyridin-3-yl)-1H-pyrazol-4-yl)pyrimidin-2-yl)amino)phenyl)piperidin-1-yl)-2-hydroxyethan-1-one], under setting [1], the 50% inhibitory concentration (IC50) is 25.2 nM.
Consider `CCn1cc(-c2ccnc(Nc3ccc(N4CCN(CC(O)COC)CC4)cc3)n2)c(-c2cccnc2)n1` (stereo not shown) [Example 105, 1-(4-(4-((4-(1-Ethyl-3-(pyridin-3-yl)-1H-pyrazol-4-yl)pyrimidin-2-yl)amino)phenyl)piperazin-1-yl)-3-methoxypropan-2-ol], for which the IC50 under setting [1] is 33.7 nM.
As to `CCn1cc(-c2ccnc(Nc3ccc(C(=O)N4CC5CCC(C4)N5C)cc3)n2)c(-c2cccnc2)n1` [Example 117, (4-((4-(1-Ethyl-3-(pyridin-3-yl)-1H-pyrazol-4-yl)pyrimidin-2-yl)amino)phenyl) (8-methyl-3,8-diazabicyclo [3.2.1]octan-3-yl)methanone], the 50% inhibitory concentration (IC50) was found to be 12 nM.
Take `CCn1cc(-c2ccnc(Nc3ccc(C(=O)N4CCN(C(C)C)CC4)cc3)n2)c(-c2cccnc2)n1` [Example 119, (4-((4-(1-Ethyl-3-(pyridin-3-yl)-1H-pyrazol-4-yl)pyrimidin-2-yl)amino)phenyl) (4-isopropylpiperazin-1-yl)methanone]: the IC50 under setting [1] turned out to be 5 nM.
